The conditions of this data set: instrument: DT, single field, calibrated with ESI Low Concentration Tuning Mix (Agilent).

Each structure is given as a SMILES string. Values joined by “and” are separate entries in the source; they are usually repeats but may differ in a detail not shown here. Equal values may be shown once.

We go through 18 molecules from the C3SDB collision cross section collection.

Consider `NC1(C(=O)[O-])CC1` [1-AMINOCYCLOPROPANECARBOXYLATE], for which the “collision cross section (N2)” value ([M-H]-) was 135.1 Å².
As to `Cn1cnc(C[C@H](N)C(=O)O)c1` [1-METHYL-L-HISTIDINE], the “collision cross section (N2)” value by setting is: ([M+H]+) 133.4 Å²; ([M+Na]+) 138.4 Å².
Turning to `NCC(N)C(=O)O` (configuration not stated) [2,3-DIAMINOPROPIONATE], the “collision cross section (N2)” value ([M+H]+) is 138.1 Å² and the “collision cross section (N2)” value ([M-H]-) was determined as 118.2 Å².
In the case of `O=C(O)c1cccc(O)c1[O-]` [2,3-DIHYDROXYBENZOATE], the “collision cross section (N2)” value ([M-H]-) turned out to be 120.6 Å².
Turning to `O=c1[nH]c(=O)c2nccnc2[nH]1` [2,4-DIHYDROXYPTERIDINE], the “collision cross section (N2)” value runs as follows: ([M+H]+) 132.4 Å²; ([M+Na]+) 143.8 Å²; ([M-H]-) 125.3 Å².
Regarding `O=C(O)c1cc(O)ccc1[O-]` [2,5-DIHYDROXYBENZOATE], under “[M-H]-”, the “collision cross section (N2)” value is 124.6 Å².
Still for that read-out and setting: to `O=C(O)Cc1ccccc1O` [2-HYDROXYPHENYLACETATE] belongs 130.1 Å².
As to `O=C(O)c1ccc2ccccc2n1` [2-QUINOLINECARBOXYLATE], the “collision cross section (N2)” value ([M+H]+) is recorded as 132 Å².
Turning to `O=C(O)Cc1ccc(O)c(O)c1` [3,4-DIHYDROXYPHENYLACETATE], the “collision cross section (N2)” value ([M+Na-2H]-) turned out to be 139.9 Å².
`OCC(O)c1ccc(O)c(O)c1` (configuration not stated) [3,4-DIHYDROXYPHENYLGLYCOL]: the “collision cross section (N2)” value ([M-H2O-H]-) is 127.5 Å².
Consider `N[C@@H](Cc1cc(I)c(O)c(I)c1)C(=O)O` [3,5-DIIODO-L-TYROSINE], for which the “collision cross section (N2)” value came to 171.1 Å² ([M+H]+), 165.2 Å² ([M+Na]+) and 159.3 Å² ([M-H]-).
Regarding `Nc1cc(C(=O)O)ccc1[O-]` [3-AMINO-4-HYDROXYBENZOATE], the “collision cross section (N2)” value is 139.6 Å² ([M+H]+) and 125.7 Å² ([M-H]-).
On to `CC(C)(COP(=O)(O)OP(=O)(O)OC[C@H]1O[C@@H](n2cnc3c(N)ncnc32)[C@H](O)[C@@H]1OP(=O)(O)O)[C@@H](O)C(=O)NCCC(=O)NCCSC(=O)C[C@@](C)(O)CC(=O)O` [3-HYDROXY-3-METHYLGLUTARYL-COA], for which the “collision cross section (N2)” value is 265.4 Å² ([M+H]+), 267.3 Å² ([M+Na-2H]-), 266.2 Å² ([M+Na]+) and 261.9 Å² ([M-H]-).
Consider `Nc1c(O)cccc1C(=O)O` [3-HYDROXYANTHRANILATE], for which the “collision cross section (N2)” value ([M+H]+) is 131.2 Å² and the “collision cross section (N2)” value ([M-H]-) is 127.8 Å².
With `COc1cc(CCN)ccc1O` [3-METHOXYTYRAMINE], where the note is “[M+H]+”, the “collision cross section (N2)” value was found to be 146.7 Å².
With `CC(C)=CC(=O)SCCNC(=O)CCNC(=O)C(O)C(C)(C)COP(=O)(O)OP(=O)(O)OC[C@H]1O[C@@H](n2cnc3c(N)ncnc32)[C@H](O)[C@@H]1OP(=O)(O)O` (some centres not stated) [3-METHYLCROTONYL-COA], the “collision cross section (N2)” value is, setting by setting: ([M+H]+) 256.1 Å²; ([M+Na-2H]-) 266.9 Å²; ([M-H]-) 256.7 Å².
Consider `N[C@@H](Cc1ccc(O)c([N+](=O)[O-])c1)C(=O)O` [3-NITRO-L-TYROSINE], for which the “collision cross section (N2)” value reads like this: ([M+H]+) 158.2 Å²; ([M+Na-2H]-) 147.7 Å²; ([M+Na]+) 154.5 Å²; ([M-H]-) 148.9 Å².
In the case of `O=C(O)C(O)COP(=O)(O)O` (configuration not stated) [3-PHOSPHOGLYCERATE], the “collision cross section (N2)” value reads like this: ([M+H]+) 136.1 Å²; ([M+Na-2H]-) 133 Å² and 141.6 Å²; ([M+Na]+) 139.4 Å²; ([M-H]-) 124.4 Å².
